Earlier results in patent publication US20250161389A1, “Herbal composition for the treatment of malaria” (RNA Therapeutics, Inc., priority 2023, published 2025).

Tested on: Plasmodium
Settings: isolated compound, best activity

SMILES: C=C(C)[C@@H]1CC[C@@]2(C)[C@H]1[C@@H]1CC[C@@H]3[C@@]4(C)CCC(=O)C(C)(C)[C@@H]4[C@H](O)C[C@@]3(C)[C@]1(C)C[C@@H]2O [resinone (39), resinone]
- IC50: < 1 µg/mL
